Assay [1] has as its target T1, SARS-CoV-2 PLpro (nsp3 1564–1878) (Severe acute respiratory syndrome coronavirus 2, UniProt P0DTD1). Kind of assay: biochemical. Set-up: FRET-quenched peptide (Pro3) cleavage by PLpro, 10 min pre-incubation, slope over 20 min, normalised to no-compound control. The following applies: high concentration screen, read-out: % of control remaining.
Assay [2] deals with T1, SARS-CoV-2 PLpro (nsp3 1564–1878). Briefly: biochemical. The arrangement: FRET-quenched peptide (Pro3) cleavage by PLpro, 10 min pre-incubation, slope over 20 min, normalised to no-compound control. The following applies: low concentration screen, read-out: % of control remaining.

Where a name gives a salt, the structure may show the parent alone. Read-outs that look alike come from different tables or passages of the source.

Results on 29 molecules are retold here after article PMC8286840, “Identifying SARS-CoV-2 antiviral compounds by screening for small molecule inhibitors of Nsp3 papain-like protease” (Biochemical Journal, 2021).

Take `CC(=O)c1ccc(N2CCOCC2)cc1O` [DNA-PK Inhibitor III]: the remaining activity at 3.75 µM in assay [1] (Well no.=2365) turned out to be 105%. Further, the remaining activity at 1.25 µM in assay [2] (Well no.=2365) came to 104%.
Take `O=C(c1ccccc1)c1ccc(N2CCOCC2)cc1O` [DNA-PK Inhibitor V]: the remaining activity at 3.75 µM in assay [1] (Well no.=2657) was determined as 101%. In assay [2] (Well no.=2657), the remaining activity at 1.25 µM stood at 95.5%.
Regarding `Cc1nc2c(c(=O)[nH]1)CSCC2` [DR2313], in assay [1] (Well no.=5778), the remaining activity at 3.75 µM was 96.7%. Besides, the remaining activity at 1.25 µM in assay [2] (Well no.=5778) is 96.1%.
In the case of `c1ccc2c(c1)N=C(N1CCNCC1)c1ccccc1N2` [DREADD agonist 21], the remaining activity at 3.75 µM in assay [1] (Well no.=6943) came out at 100%. For the same molecule, the remaining activity at 1.25 µM in assay [2] (Well no.=6943) stood at 96.4%.
Turning to `CCN(CCCl)Cc1ccccc1Br` [DSP-4 hydrochloride], the remaining activity at 3.75 µM in assay [1] (Well no.=284) stood at 98%. For the same molecule, the remaining activity at 1.25 µM in assay [2] (Well no.=284) is 98.1%.
For the molecule `CCCCCCOC(=O)NC(=N)c1ccc(NCc2nc3cc(C(=O)N(CCC(=O)OCC)c4ccccn4)ccc3n2C)cc1` [Dabigatran Etexilate], in assay [1] (Well no.=8192), the remaining activity at 3.75 µM amounted to 82.3%. Also, the remaining activity at 1.25 µM in assay [2] (Well no.=8192) is 95.6%.
`CN(C)/N=N/c1[nH]cnc1C(N)=O` [Dacarbazine]: the remaining activity at 3.75 µM in assay [1] (Well no.=1940) stood at 99.4%. Also, the remaining activity at 1.25 µM in assay [2] (Well no.=1940) stood at 103%.
With `COc1cc2ncnc(Nc3ccc(F)c(Cl)c3)c2cc1NC(=O)/C=C/CN1CCCCC1` [Dacomitinib (PF299804,PF-00299804)], the remaining activity at 3.75 µM in assay [1] (Well no.=5027) stood at 95.4%. The remaining activity at 1.25 µM in assay [2] (Well no.=5027) was determined as 94.2%.
In the case of `O=c1c(-c2ccc(O)cc2)coc2cc(O)ccc12` [Daidzein], the remaining activity at 3.75 µM in assay [1] (Well no.=438) was found to be 99.2%; in assay [1] (Well no.=3219), 104%. The remaining activity at 1.25 µM in assay [2] (Well no.=438) stood at 102%; in assay [2] (Well no.=3219), 103%.
Turning to `O=c1c(-c2ccc(O)cc2)coc2cc(O[C@@H]3O[C@H](CO)[C@@H](O)[C@H](O)[C@H]3O)ccc12` [Daidzin], the remaining activity at 3.75 µM in assay [1] (Well no.=3249) was 102%. The remaining activity at 1.25 µM in assay [2] (Well no.=3249) is 103%.
In the case of `CCC(CC)CC1(C(=O)Nc2ccccc2SC(=O)C(C)C)CCCCC1` [Dalcetrapib (JTT-705, RO4607381)], in assay [1] (Well no.=8198), the remaining activity at 3.75 µM was found to be 102%. For the same molecule, the remaining activity at 1.25 µM in assay [2] (Well no.=8198) worked out at 102%.
For the molecule `CCN(CC)CCS(=O)(=O)[C@@H]1CCN2C(=O)c3coc(n3)CC(=O)C[C@H](O)/C=C(C)/C=C/CNC(=O)/C=C/[C@@H](C)[C@@H](C(C)C)OC(=O)[C@@H]12` [Dalfopristin], in assay [1] (Well no.=7876), the remaining activity at 3.75 µM was 93.8%. Further, the remaining activity at 1.25 µM in assay [2] (Well no.=7876) was found to be 95%.
With `C#C[C@]1(O)CC[C@H]2[C@@H]3CCC4=Cc5oncc5C[C@]4(C)[C@H]3CC[C@@]21C` [Danazol], the remaining activity at 3.75 µM in assay [1] (Well no.=584) turned out to be 97%; in assay [1] (Well no.=1942) it was 106%. Besides, the remaining activity at 1.25 µM in assay [2] (Well no.=584) stood at 94.6%; in assay [2] (Well no.=1942), 105%.
Turning to `NCC(=O)N1C[C@H](NC(=O)c2ccccc2)C[C@H]1C(=O)O` [Danegaptide Hydrochloride], the remaining activity at 3.75 µM in assay [1] (Well no.=8026) stood at 100%. The remaining activity at 1.25 µM in assay [2] (Well no.=8026) is 98.8%.
For the molecule `Cc1c(F)cccc1NC(=O)Nc1ccc(Cl)c(S(=O)(=O)[C@H]2CCCNC2)c1O` [Danirixin], the remaining activity at 3.75 µM in assay [1] (Well no.=8173) turned out to be 103%. Besides, in assay [2] (Well no.=8173), the remaining activity at 1.25 µM came out at 111%.
As for `CN1C[C@@H]2C[C@H]1CN2c1cc2c(cc1F)c(=O)c(C(=O)O)cn2C1CC1` [Danofloxacin Mesylate], the remaining activity at 3.75 µM in assay [1] (Well no.=5322) turned out to be 86.3%. Further, in assay [2] (Well no.=5322), the remaining activity at 1.25 µM came to 87.6%.
Take `O=C1CN(/N=C/c2ccc(-c3ccc([N+](=O)[O-])cc3)o2)C(=O)N1` [Dantrolene sodium salt]: the remaining activity at 3.75 µM in assay [1] (Well no.=5847) is 101%. The remaining activity at 1.25 µM in assay [2] (Well no.=5847) was 104%.
As to `O=C1CN(/N=C/c2ccc(-c3ccc([N+](=O)[O-])cc3)o2)C(=O)N1` [Dantrolene sodium], in assay [1] (Well no.=490), the remaining activity at 3.75 µM came to 103%. For the same molecule, the remaining activity at 1.25 µM in assay [2] (Well no.=490) was found to be 103%.
As to `CO[C@@H](C(=O)N1Cc2[nH]nc(NC(=O)c3ccc(N4CCN(C)CC4)cc3)c2C1)c1ccccc1` [Danusertib (PHA-739358)], in assay [1] (Well no.=5045), the remaining activity at 3.75 µM worked out at 106%. For the same molecule, the remaining activity at 1.25 µM in assay [2] (Well no.=5045) was 103%.
On to `CCOc1ccc(Cc2cc([C@@H]3O[C@H](CO)[C@@H](O)[C@H](O)[C@H]3O)ccc2Cl)cc1` [Dapagliflozin], for which the remaining activity at 3.75 µM in assay [1] (Well no.=5291) was 95.8%. Further, in assay [2] (Well no.=5291), the remaining activity at 1.25 µM turned out to be 93.4%.
For the molecule `O=c1ccc2ccc(O)c(O)c2o1` [Daphnetin], the remaining activity at 3.75 µM in assay [1] (Well no.=405) came to 101%. In assay [2] (Well no.=405), the remaining activity at 1.25 µM came to 102%.
Turning to `Cc1ccccc1N1CCN(CCc2nnc3n2CCCC3)CC1` [Dapiprazole (hydrochloride)], the remaining activity at 3.75 µM in assay [1] (Well no.=6895) was determined as 100%. Further, the remaining activity at 1.25 µM in assay [2] (Well no.=6895) is 97.8%.
Regarding `Cc1cc(C)c(Nc2ccnc(Nc3ccc(C#N)cc3)n2)c(C)c1` [Dapivirine], in assay [1] (Well no.=5223), the remaining activity at 3.75 µM came out at 98.3%. Also, the remaining activity at 1.25 µM in assay [2] (Well no.=5223) was 97.4%.
On to `CN(C)[C@@H](CCOc1cccc2ccccc12)c1ccccc1` [Dapoxetine hydrochloride], for which, in assay [1] (Well no.=5853), the remaining activity at 3.75 µM came to 91%. In addition, the remaining activity at 1.25 µM in assay [2] (Well no.=5853) came out at 94.2%.
Turning to `O=C(O)CNC(=O)C1C(=O)N(C2CCCCC2)C(=O)N(C2CCCCC2)C1=O` [Daprodustat (GSK1278863)], the remaining activity at 3.75 µM in assay [1] (Well no.=8534) is 99.9%. Besides, the remaining activity at 1.25 µM in assay [2] (Well no.=8534) was 96.6%.
Regarding `CCCCCCCCCC(=O)N[C@@H](Cc1c[nH]c2ccccc12)C(=O)N[C@H](CC(N)=O)C(=O)N[C@@H](CC(=O)O)C(=O)N[C@@H]1C(=O)NCC(=O)N[C@@H](CCCN)C(=O)N[C@@H](CC(=O)O)C(=O)N[C@H](C)C(=O)N[C@@H](CC(=O)O)C(=O)NCC(=O)N[C@H](CO)C(=O)N[C@@H]([C@H](C)CC(=O)O)C(=O)N[C@@H](CC(=O)c2ccccc2N)C(=O)O[C@@H]1C` [Daptomycin], the results for the remaining activity at 3.75 µM in assay [1] (Well no.=5201) and in assay [1] (Well no.=7796) were 100% and 105%, respectively. Moreover, the remaining activity at 1.25 µM in assay [2] (Well no.=5201) stood at 98.3%; in assay [2] (Well no.=7796) it was 104%.
Turning to `CCN(CC)CCN(Cc1ccc(-c2ccc(C(F)(F)F)cc2)cc1)C(=O)Cn1c(SCc2ccc(F)cc2)nc(=O)c2c1CCC2` [Darapladib (SB-480848)], in assay [1] (Well no.=8576), the remaining activity at 3.75 µM was 98.6%. The remaining activity at 1.25 µM in assay [2] (Well no.=8576) came to 101%.
`Cc1oc(-c2ccccc2)nc1CCC(=O)c1ccc(CC2SC(=O)NC2=O)cc1` (stereo not shown) [Darglitazone sodium salt]: the remaining activity at 3.75 µM in assay [1] (Well no.=5504) is 98%. The remaining activity at 1.25 µM in assay [2] (Well no.=5504) was 90.6%.
Regarding `NC(=O)C(c1ccccc1)(c1ccccc1)[C@@H]1CCN(CCc2ccc3c(c2)CCO3)C1` [Darifenacin (hydrobromide)], the remaining activity at 3.75 µM in assay [1] (Well no.=7341) is 89.4%. Also, the remaining activity at 1.25 µM in assay [2] (Well no.=7341) came to 95.3%.
